# From patent publication US20100298141A1, “SUBSTITUTED PYRIDINE N-OXIDE HERBICIDES” (E. I. DU PONT DE NEMOURS AND COMPANY, priority 2007, published 2010)
# Assays:
# Experiment in all cases: Test F preemergence test
# Settings in all cases: scale 0 to 100
# bermudagrass = format: in vivo, Cynodon dactylon
# Outline: (§1)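 Compound in a non-phytotoxic solvent blend with surfactant is applied preemergence to planted seeds or postemergence to sugarcane plants. Plants and controls stay in the greenhouse 14 to 21 days before visual comparison.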
# Surinam grass = format: in vivo, Brachiaria decumbens
# Outline: as §1
# large crabgrass = format: in vivo, Digitaria sanguinalis
# Outline: as §1
# goosegrass = format: in vivo, Eleusine indica
# Outline: as §1
# johnsongrass = format: in vivo, Sorghum halepense
# Outline: as §1
# kochia = format: in vivo, Kochia scoparia
# Outline: as §1
# pitted morningglory = format: in vivo, Ipomoea lacunosa
# Outline: as §1
# mustard = format: in vivo, Brassica nigra
# Outline: as §1
# guineagrass = format: in vivo, Panicum maximum
# Outline: as §1
# dallisgrass = format: in vivo, Paspalum dilatatum
# Outline: as §1
# barnyardgrass = format: in vivo, Echinochloa crus-galli
# Outline: as §1
# prickly sida = format: in vivo, Sida spinosa
# Outline: as §1
# Italian ryegrass = format: in vivo, Lolium multiflorum
# Outline: as §1
# common purslane = format: in vivo, Portulaca oleracea
# Outline: as §1
# broadleaf signalgrass = format: in vivo, Brachiaria platyphylla
# Outline: as §1
# common groundsel = format: in vivo, Senecio vulgaris
# Outline: as §1
# Virginia dayflower = format: in vivo, Commelina virginica
# Outline: as §1
# naked crabgrass = format: in vivo, Digitaria nuda
# Outline: as §1
# itchgrass = format: in vivo, Rottboellia cochinchinensis
# Outline: as §1
# quackgrass = format: in vivo, Elytrigia repens
# Outline: as §1
smiles,measurement,setting,value
Cc1cc[n+]([O-])c([S+]([O-])Cc2c(C(F)(F)F)nn(C)c2OC(F)F)c1 (centres unmarked) [Compound 1],"Plant response rating, Bermudagrass","bermudagrass; 8 g ai/ha, preemergence",0
same,Bermudagrass plant response rating,"bermudagrass; 62 g ai/ha, Preemergence",80
same,"Plant response rating, Bermudagrass","bermudagrass; Preemergence, 16 g ai/ha",40
same,"Plant response rating, Bermudagrass","bermudagrass; Preemergence, 31 g ai/ha",40
same,"Plant response rating, Surinam Grass","Surinam grass; 8 g ai/ha, preemergence",0
same,"Plant response rating, Surinam Grass","Surinam grass; 16 g ai/ha, preemergence",0
same,Surinam Grass plant response rating,"Surinam grass; 62 g ai/ha, Preemergence",90
same,"Plant response rating, Surinam Grass","Surinam grass; Preemergence, 31 g ai/ha",0
same,"Plant response rating, Crabgrass, Large","large crabgrass; 8 g ai/ha, preemergence",0
same,"Crabgrass, Large plant response rating","large crabgrass; 62 g ai/ha, Preemergence",95
same,"Plant response rating, Crabgrass, Large","large crabgrass; Preemergence, 16 g ai/ha",20
same,"Plant response rating, Crabgrass, Large","large crabgrass; Preemergence, 31 g ai/ha",70
same,"Plant response rating, Goosegrass","goosegrass; 8 g ai/ha, preemergence",25
same,Goosegrass plant response rating,"goosegrass; 62 g ai/ha, Preemergence",95
same,"Plant response rating, Goosegrass","goosegrass; Preemergence, 16 g ai/ha",70
same,"Plant response rating, Goosegrass","goosegrass; Preemergence, 31 g ai/ha",80
same,"Plant response rating, Johnsongrass","johnsongrass; 8 g ai/ha, preemergence",35
same,Johnsongrass plant response rating,"johnsongrass; 62 g ai/ha, Preemergence",90
same,"Plant response rating, Johnsongrass","johnsongrass; Preemergence, 16 g ai/ha",70
same,"Plant response rating, Johnsongrass","johnsongrass; Preemergence, 31 g ai/ha",90
same,"Plant response rating, Kochia","kochia; 8 g ai/ha, preemergence",0
same,Kochia plant response rating,"kochia; 62 g ai/ha, Preemergence",90
same,"Plant response rating, Kochia","kochia; Preemergence, 16 g ai/ha",0
same,"Plant response rating, Kochia","kochia; Preemergence, 31 g ai/ha",35
same,"Plant response rating, Morningglory","pitted morningglory; 8 g ai/ha, preemergence",0
same,Morningglory plant response rating,"pitted morningglory; 62 g ai/ha, Preemergence",95
same,"Plant response rating, Morningglory","pitted morningglory; Preemergence, 16 g ai/ha",10
same,"Plant response rating, Morningglory","pitted morningglory; Preemergence, 31 g ai/ha",75
same,"Plant response rating, Black Mustard","mustard; 8 g ai/ha, preemergence",0
same,Black Mustard plant response rating,"mustard; 62 g ai/ha, Preemergence",100
same,"Plant response rating, Black Mustard","mustard; Preemergence, 16 g ai/ha",0
same,"Plant response rating, Black Mustard","mustard; Preemergence, 31 g ai/ha",80
same,"Plant response rating, Guineagrass","guineagrass; 8 g ai/ha, preemergence",65
same,Guineagrass plant response rating,"guineagrass; 62 g ai/ha, Preemergence",100
same,"Plant response rating, Guineagrass","guineagrass; Preemergence, 16 g ai/ha",80
same,"Plant response rating, Guineagrass","guineagrass; Preemergence, 31 g ai/ha",80
same,"Plant response rating, Dallisgrass","dallisgrass; 8 g ai/ha, preemergence",0
same,Dallisgrass plant response rating,"dallisgrass; 62 g ai/ha, Preemergence",50
same,"Plant response rating, Dallisgrass","dallisgrass; Preemergence, 16 g ai/ha",0
same,"Plant response rating, Dallisgrass","dallisgrass; Preemergence, 31 g ai/ha",20
same,"Plant response rating, Barnyardgrass","barnyardgrass; 8 g ai/ha, preemergence",5
same,Barnyardgrass plant response rating,"barnyardgrass; 62 g ai/ha, Preemergence",90
same,"Plant response rating, Barnyardgrass","barnyardgrass; Preemergence, 16 g ai/ha",60
same,"Plant response rating, Barnyardgrass","barnyardgrass; Preemergence, 31 g ai/ha",80
same,"Plant response rating, Prickly Sida","prickly sida; 8 g ai/ha, preemergence",0
same,Prickly Sida plant response rating,"prickly sida; 62 g ai/ha, Preemergence",80
same,"Plant response rating, Prickly Sida","prickly sida; Preemergence, 16 g ai/ha",20
same,"Plant response rating, Prickly Sida","prickly sida; Preemergence, 31 g ai/ha",60
same,"Plant response rating, Ryegrass, Italian","Italian ryegrass; 8 g ai/ha, preemergence",0
same,"Ryegrass, Italian plant response rating","Italian ryegrass; 62 g ai/ha, Preemergence",90
same,"Plant response rating, Ryegrass, Italian","Italian ryegrass; Preemergence, 16 g ai/ha",0
same,"Plant response rating, Ryegrass, Italian","Italian ryegrass; Preemergence, 31 g ai/ha",60
same,"Plant response rating, Purslane","common purslane; 8 g ai/ha, preemergence",0
same,Purslane plant response rating,"common purslane; 62 g ai/ha, Preemergence",80
same,"Plant response rating, Purslane","common purslane; Preemergence, 16 g ai/ha",35
same,"Plant response rating, Purslane","common purslane; Preemergence, 31 g ai/ha",60
same,"Plant response rating, Signalgrass","broadleaf signalgrass; 8 g ai/ha, preemergence",0
same,"Plant response rating, Signalgrass","broadleaf signalgrass; 16 g ai/ha, preemergence",0
same,Signalgrass plant response rating,"broadleaf signalgrass; 62 g ai/ha, Preemergence",50
same,"Plant response rating, Signalgrass","broadleaf signalgrass; Preemergence, 31 g ai/ha",25
same,"Plant response rating, Groundsel","common groundsel; 8 g ai/ha, preemergence",0
same,Groundsel plant response rating,"common groundsel; 62 g ai/ha, Preemergence",35
same,"Plant response rating, Groundsel","common groundsel; Preemergence, 16 g ai/ha",20
same,"Plant response rating, Groundsel","common groundsel; Preemergence, 31 g ai/ha",35
same,"Plant response rating, Dayflower","Virginia dayflower; 8 g ai/ha, preemergence",0
same,Dayflower plant response rating,"Virginia dayflower; 62 g ai/ha, Preemergence",100
same,"Plant response rating, Dayflower","Virginia dayflower; Preemergence, 16 g ai/ha",0
same,"Plant response rating, Dayflower","Virginia dayflower; Preemergence, 31 g ai/ha",80
same,"Plant response rating, Crabgrass, Naked","naked crabgrass; 8 g ai/ha, preemergence",0
same,"Crabgrass, Naked plant response rating","naked crabgrass; 62 g ai/ha, Preemergence",100
same,"Plant response rating, Crabgrass, Naked","naked crabgrass; Preemergence, 16 g ai/ha",15
same,"Plant response rating, Crabgrass, Naked","naked crabgrass; Preemergence, 31 g ai/ha",90
same,"Plant response rating, Itchgrass","itchgrass; 8 g ai/ha, preemergence",0
same,Itchgrass plant response rating,"itchgrass; 62 g ai/ha, Preemergence",90
same,"Plant response rating, Itchgrass","itchgrass; Preemergence, 16 g ai/ha",60
same,"Plant response rating, Itchgrass","itchgrass; Preemergence, 31 g ai/ha",70
same,"Plant response rating, Quackgrass","quackgrass; 8 g ai/ha, preemergence",0
same,Quackgrass plant response rating,"quackgrass; 62 g ai/ha, Preemergence",65
same,"Plant response rating, Quackgrass","quackgrass; Preemergence, 16 g ai/ha",35
same,"Plant response rating, Quackgrass","quackgrass; Preemergence, 31 g ai/ha",50
